Measured values reported in patent US10363257B2 (ZENITH EPIGENETICS LTD., priority 2013, dated 2019).
pIC50: −log10 of the molar value.

Assays:
[1] = target: T1, Brd4 bromodomain 1 (BRD4(1)) (Homo sapiens, UniProt O60885); test: Inhibition of tetra-acetylated histone H4 binding to Brd4 bromodomain 1 (TR-FRET); conditions: tetra-acetylated histone H4 peptide, first bromodomain of Brd4
T1 construct: made in house; host or cells: E. coli BL21(DE3)
Method in brief: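 Serially diluted compound (0.2% DMSO) incubated 2 h at room temperature with 200 nM N-His BRD4 bromodomain 1 and 25-50 nM biotinylated tetra-acetyl H4 peptide, detected via Eu-streptavidin/XL665 anti-His. Loss of 665 nm relative to 620 nm signal gave IC50 from dose-response.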

human AML MV-4-11 cells = test: Inhibition of cell proliferation in MV4-11 cells (CellTiter Aqueous One); format: cell-based; conditions: for Cell Proliferation activity: 72 h; for pIC50: MV4-11, 72 h
Method in brief: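 IC50 values come from blank-corrected proliferation relative to DMSO controls, read as 490 nm absorbance 3–4 h after CellTiter Aqueous One addition. Before that, cells seeded at 5×10^4/well were exposed for 72 h (37° C, 5% CO2) to triplicate two-fold compound dilutions spanning 30–0.2 μM.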

hIL-6 mRNA = test: Inhibition of hIL-6 mRNA transcription in LPS-stimulated U937 cells; format: cell-based; conditions: Homo sapiens, U-937; PMA-differentiated U937 cells, 1 h pretreatment, 1 ug/mL LPS stimulation, 3 h; read-out: IL-6 activity (Inhibition of hIL-6 mRNA Transcription)
Method in brief: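 U937 cells differentiated 3 days with 60 ng/mL PMA, pretreated 1 h with compound (0.1% DMSO), then stimulated with 1 ug/mL E. coli LPS for 3 h at 37 °C. hIL-6 mRNA measured by one-step TaqMan RT-qPCR, normalized to cyclophilin. Fold expression relative to control; triplicate wells.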

hIL-17 mRNA = test: Inhibition of hIL-17 mRNA transcription in OKT3-stimulated peripheral blood mononuclear cells; format: cell-based; conditions: PBMC, human peripheral blood mononuclear cells, OKT3 antibody, 6 h, read-out: IL-17 activity
Method: In this example, hIL-17 mRNA in human peripheral blood mononuclear cells was quantitated to measure the transcriptional inhibition of hIL-17 when treated with a compound of the invention.
Human peripheral blood mononuclear cells were plated (2.0×10^5 cells per well) in a 96-well plate in 45 μL OpTimizer T Cell expansion media containing 20 ng/ml IL-2 and penicillin/streptomycin. The cells were treated with the test compound (45 μL at 2× concentration), and then the cells were incubated at 37° C. for 1 h before addition of 10× stock OKT3 antibody at 10 μg/ml in media. Cells were incubated at 37° C. for 6 h before the cells were harvested. At time of harvest, cells were centrifuged (800 rpm, 5 min). Spent media was removed and cell lysis solution (70 μL) was added to the cells in each well and incubated for 5-10 min at room temperature, to allow for complete cell lysis and detachment. mRNA was then prepared using the “mRNA Catcher PLUS plate” (Invitrogen), according to the protocol supplied. After the last wash, as much wash buffer as possible was aspirated without allowing the wells to dry. Elution buffer (E3, 70 μL) was then added to each well. mRNA was then eluted by incubating the mRNA Catcher PLUS plate with Elution Buffer for 5 min at 68° C. and then immediately placing the plate on ice.
The eluted mRNA isolated was then used in a one-step quantitative RT-PCR reaction, using components of the Ultra Sense Kit together with Applied Biosystems primer-probe mixes. Real-time PCR data was analyzed, normalizing the Ct values for hIL-17 to an internal control, prior to determining the fold induction of each unknown sample, relative to the control.

c-myc = test: Inhibition of c-myc expression (mRNA, real-time PCR) in MV4-11 cells; format: cell-based; conditions: Human AML MV4-11 cells, 3 h, cMYC mRNA
Method in brief: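 One-step TaqMan qPCR of cMYC, normalized to an internal control with Cyclophilin probes run, gave fold expression versus DMSO (0.1%) control. Samples: triplicate MV4-11 wells exposed 3 h at 37° C to rising compound concentrations in IMDM with 10% FBS.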

Structure (SMILES)	pIC50 [1]	pIC50 (hIL-6 mRNA)	pIC50 (hIL-17 mRNA)	pIC50 (c-myc)	pIC50 (human AML MV-4-11 cells)	Cell Proliferation activity (human AML MV-4-11 cells)
Cc1noc(C)c1-c1cc(N)c2c(c1)ncn2Cc1ccccc1 [Example Compound 8, 1-Benzyl-5-(3,5-dimethylisoxazol-4-yl)-1H-benzo[d]imidazol-7-amine]	≥ 6.52	5.52 to 6.52	5.52 to 6.52	5.52 to 6.52	5.52 to 6.52	–
CCNc1nc2c([N+](=O)[O-])cc(-c3c(C)noc3C)cc2n1Cc1ccccc1 [Example Compound 18, 1-benzyl-6-(3,5-dimethylisoxazol-4-yl)-N-ethyl-4-nitro-1H-benzo[d]imidazol-2-amine]	≥ 6.52	5.52 to 6.52	5.52 to 6.52	≥ 6.52	≥ 6.52	–
CCNc1nc2c(N)cc(-c3c(C)noc3C)cc2n1Cc1ccccc1 [Example Compound 19, 1-benzyl-6-(3,5-dimethylisoxazol-4-yl)-N^2-ethyl-1H-benzo[d]imidazole-2,4-diamine]	≥ 6.52	≥ 6.52	≥ 6.52	≥ 6.52	≥ 6.52	–
Cc1noc(C)c1-c1cnc2ncn(C(C)c3ccccc3)c2c1 (stereo not drawn) [Example Compound 30]	≥ 6.52	5.52 to 6.52	5.52 to 6.52	5.52 to 6.52	5.52 to 6.52	–
Cc1noc(C)c1-c1cnc2cnn(Cc3ccccc3)c2c1 [compound 92, 4-(1-benzyl-1H-pyrazolo[4,3-b]pyridin-6-yl)-3,5-dimethylisoxazole]	≥ 6.52	5.52 to 6.52	–	5.52 to 6.52	5.52 to 6.52	–
Cc1noc(C)c1-c1cc(N)c2oc(=O)n(Cc3ccccc3)c2c1 [compound 67, 7-amino-3-benzyl-5-(3,5-dimethylisoxazol-4-yl)benzo[d]oxazol-2(3H)-one]	≥ 6.52	≥ 6.52	–	≥ 6.52	5.52 to 6.52	–
Cc1noc(C)c1-c1cc(N)c2[nH]c(=O)n(C(C)c3ccccc3)c2c1 (stereo not drawn) [compound 115, 4-amino-6-(3,5-dimethylisoxazol-4-yl)-1-(1-phenylethyl)-1H-benzo[d]imidazol-2(3H)-one]	≥ 6.52	≥ 6.52	–	≥ 6.52	≥ 6.52	–
Cc1cnn(C)c1-c1cc([N+](=O)[O-])c2nc(C)n(Cc3ccccc3)c2c1 [compound 81, 1-benzyl-6-(1,4-dimethyl-1H-pyrazol-5-yl)-2-methyl-4-nitro-1H-benzo[d]imidazole]	5.52 to 6.52	5.52 to 6.52	–	4.52 to 5.52	4.52 to 5.52	–
CC(=O)c1cn(Cc2ccccc2)c2cc(-c3c(C)noc3C)cnc12 [Example Compound 36, 1-(1-benzyl-6-(3,5-dimethylisoxazol-4-yl)-1H-pyrrolo[3,2-b]pyridin-3-yl)ethanone]	≥ 6.52	5.52 to 6.52	–	5.52 to 6.52	5.52 to 6.52	–
Cc1noc(C)c1-c1cc([N+](=O)[O-])c2nc(C)n(CC3CC3)c2c1 [Example Compound 14, 4-(1-(cyclopropylmethyl)-2-methyl-4-nitro-1H-benzo[d]imidazol-6-yl)-3,5-dimethylisoxazole]	≥ 6.52	5.52 to 6.52	–	5.52 to 6.52	4.52 to 5.52	–
Cc1noc(C)c1-c1cc(N)c2nc(C)n(CC3CC3)c2c1 [compound 75, 1-(cyclopropylmethyl)-6-(3,5-dimethylisoxazol-4-yl)-2-methyl-1H-benzo[d]imidazol-4-amine]	≥ 6.52	5.52 to 6.52	–	5.52 to 6.52	5.52 to 6.52	–
Cc1noc(C)c1-c1cc([N+](=O)[O-])c2[nH]c(=O)n(Cc3ccccc3)c2c1 [Example Compound 15, 1-benzyl-6-(3,5-dimethylisoxazol-4-yl)-4-nitro-1H-benzo[d]imidazol-2(3H)-one]	≥ 6.52	5.52 to 6.52	–	5.52 to 6.52	5.52 to 6.52	–
Cc1noc(C)c1-c1cnc2c(c1)ncn2Cc1ccccn1 [Example Compound 46, 3,5-dimethyl-4-(3-(pyridin-2-ylmethyl)-3H-imidazo[4,5-b]pyridin-6-yl)isoxazole]	5.52 to 6.52	4.52 to 5.52	–	4.52 to 5.52	4.52 to 5.52	–

More lines, main results first:

pIC50 [1]	pIC50 (hIL-6 mRNA)	pIC50 (hIL-17 mRNA)	pIC50 (c-myc)	pIC50 (human AML MV-4-11 cells)	Structure (SMILES)	Cell Proliferation activity (human AML MV-4-11 cells)
≥ 6.52	5.52 to 6.52	4.52 to 5.52	–	–	Cc1noc(C)c1-c1cnc2c(C)nn(Cc3ccc(F)cc3)c2c1 [Example Compound 53, 4-(1-(4-fluorobenzyl)-3-methyl-1H-pyrazolo[4,3-b]pyridin-6-yl)-3,5-dimethylisoxazole]	Not active
≥ 6.52	5.52 to 6.52	5.52 to 6.52	5.52 to 6.52	5.52 to 6.52	Cc1noc(C)c1-c1cnc2cnn(Cc3ccc(F)cc3)c2c1 [Example Compound 51, 4-(1-(4-fluorobenzyl)-1H-pyrazolo[4,3-b]pyridin-6-yl)-3,5-dimethylisoxazole]	–
≥ 6.52	5.52 to 6.52	5.52 to 6.52	5.52 to 6.52	5.52 to 6.52	Cc1noc(C)c1-c1cnc2ncn(Cc3ccccc3)c2c1 [Example Compound 5, 4-(1-Benzyl-1H-imidazo[4,5-b]pyridin-6-yl)-3,5-dimethylisoxazole]	–
≥ 6.52	≥ 6.52	≥ 6.52	≥ 6.52	≥ 6.52	Cc1noc(C)c1-c1cc(N)c2nc(C)n(Cc3ccccc3)c2c1 [Example Compound 55, 1-benzyl-6-(3,5-dimethylisoxazol-4-yl)-2-methyl-1H-benzo[d]imidazol-4-amine]	–
≥ 6.52	≥ 6.52	≥ 6.52	5.52 to 6.52	5.52 to 6.52	Cc1noc(C)c1-c1cnc2[nH]c(=O)n(Cc3ccccc3)c2c1 [Example Compound 10, 1-Benzyl-6-(3,5-dimethylisoxazol-4-yl)-1H-imidazo[4,5-b]pyridin-2(3H)-one]	–
≥ 6.52	≥ 6.52	≥ 6.52	≥ 6.52	5.52 to 6.52	CC(=O)Nc1cc(-c2c(C)noc2C)cc2c1nc(C)n2Cc1ccccc1 [Example Compound 64, N-(1-benzyl-6-(3,5-dimethylisoxazol-4-yl)-2-methyl-1H-benzo[d]imidazol-4-yl)acetamide]	–
≥ 6.52	5.52 to 6.52	5.52 to 6.52	5.52 to 6.52	5.52 to 6.52	Cc1noc(C)c1-c1cnc2[nH]c(=O)n(Cc3ccc(Cl)cc3)c2c1 [compound 105, 1-(4-chlorobenzyl)-6-(3,5-dimethylisoxazol-4-yl)-1H-imidazo[4,5-b]pyridin-2(3H)-one]	–
≥ 6.52	4.52 to 5.52	–	4.52 to 5.52	–	Cc1noc(C)c1-c1cnc2nc(C)n(Cc3ccc(C(N)=O)cc3)c2c1 [Example Compound 38, 4-((6-(3,5-dimethylisoxazol-4-yl)-2-methyl-1H-imidazo[4,5-b]pyridin-1-yl)methyl)benzamide]	Not active
≥ 6.52	5.52 to 6.52	–	5.52 to 6.52	5.52 to 6.52	Cc1noc(C)c1-c1cnc2nc(C)n(Cc3ccc(Cl)c(Cl)c3)c2c1 [compound 95, 4-(1-(3,4-dichlorobenzyl)-2-methyl-1H-imidazo[4,5-b]pyridin-6-yl)-3,5-dimethylisoxazole]	–
≥ 6.52	5.52 to 6.52	–	≥ 6.52	≥ 6.52	Cc1noc(C)c1-c1cc(Br)c2nc(C)n(Cc3ccccc3)c2c1 [compound 121, 4-(1-benzyl-4-bromo-2-methyl-1H-benzo[d]imidazol-6-yl)-3,5-dimethylisoxazole]	–
